Measured values taken from ChEMBL document CHEMBL4477164, “Domino Synthesis of Embelin Derivatives with Antibacterial Activity” (2016).
The source made the active and inactive calls. The rule behind the calls is not given here.

Tests used:
[1] = test system: Staphylococcus aureus; assay: Antibacterial activity against vancomycin-intermediate/methicillin-resistant Staphylococcus aureus NRS402 assessed as bacterial growth inhibition after 24 hrs by broth dilution method; assay type: functional; settings: NRS402, 24 h
[2] = test system: Staphylococcus aureus; assay: Antibacterial activity against vancomycin/methicillin-sensitive Staphylococcus aureus ATCC 25923 assessed as bacterial growth inhibition after 24 hrs by broth dilution method; assay type: functional; settings: ATCC 25923, 24 h
[3] = test system: Pseudomonas aeruginosa; assay: Antibacterial activity against Pseudomonas aeruginosa assessed as bacterial growth inhibition after 24 hrs by broth dilution method; assay type: functional, organism-based
[4] = test system: Escherichia coli; assay: Antibacterial activity against Escherichia coli assessed as bacterial growth inhibition after 24 hrs by broth dilution method; assay type: functional, organism-based

| SMILES | MIC [1] | MIC [2] | Activity [3] | Activity [4] |
| --- | --- | --- | --- | --- |
| CCCCCCCCCCCC1=C(O)C(=O)C2=C(OC(C)(C)[C@H]3CC[C@H](C)C[C@H]23)C1=O | 1 µM | 8 µM | inactive | inactive |
| CCCCCCCCCCCC1=C(O)C(=O)C([C@H]2[C@H](C)CC[C@@H]2C(C)(C)OCC)=C(O)C1=O (racemic) | > 128 µM | > 128 µM | inactive | inactive |
| CCCCCCCCCCCC1=C(O)C(=O)C2=C(OC(C)(C)[C@H]3CC[C@@H](C)[C@H]23)C1=O (racemic) | 4 µM | 64 µM | inactive | inactive |
| CCCCCCCCCCCC1=C(O)C(=O)C2=C(OC(C)(C)[C@@H]3COc4ccc5ccccc5c4[C@H]23)C1=O (racemic) | > 128 µM | > 128 µM | inactive | inactive |
| CCCCCCCCCCCC1=C(O)C(=O)C2=C(OC(C)(C)[C@H]3COc4ccc(OCC=C(C)C)cc4[C@H]23)C1=O (relative stereo) | > 128 µM | > 128 µM | inactive | inactive |
| CCCCCCCCCCCC1=C(O)C(=O)C2=C(OC(C)(C)[C@H]3COc4cc(OC)ccc4[C@H]23)C1=O (relative stereo) | 4 µM | 64 µM | inactive | inactive |
| CCCCCCCCCCCC1=C(O)C(=O)C2=C(OC(C)(C)[C@@H]3COc4cc(OC)ccc4[C@H]23)C1=O (relative stereo) | 1 µM | 8 µM | inactive | inactive |
| CCCCCCCCCCCC1=C(O)C(=O)C2=C(OC(C)(C)[C@@H]3COc4ccc(Br)cc4[C@H]23)C1=O (relative stereo) | 32 µM | 16 µM | inactive | inactive |
| CCCCCCCCCCCC1=C(O)C(=O)C2=C(OC(C)(C)[C@H]3COc4ccc(Br)cc4[C@H]23)C1=O (relative stereo) | 32 µM | 16 µM | inactive | inactive |
| CCCCCCCCCCCC1=C(O)C(=O)C2=C(OC(C)(C)[C@H]3COc4ccc(Cl)cc4[C@H]23)C1=O (relative stereo) | 2 µM | 4 µM | inactive | inactive |
| CCCCCCCCCCCC1=C(O)C(=O)C2=C(OC(C)(C)[C@@H]3COc4ccc(OCC=C(C)C)cc4[C@H]23)C1=O (relative stereo) | > 128 µM | > 128 µM | inactive | inactive |
| CCCCCCCCCCCC1=C(O)C(=O)C2=C(OC(C)(C)[C@@H]3COc4ccc(Cl)cc4[C@H]23)C1=O (relative stereo) | 1 µM | 4 µM | inactive | inactive |
| CCCCCCCCCCCC1=C(O)C(=O)C=C(O)C1=O [EMBELIN] | 16 µM | 32 µM | inactive | inactive |
| C/C(=C\C(=O)OCCCCCCCCC(=O)O)C[C@@H]1OC[C@H](C[C@@H]2O[C@H]2[C@@H](C)[C@H](C)O)[C@@H](O)[C@H]1O [MUPIROCIN] | < 1 µg/mL | < 1 µg/mL | – | – |
| Cc1onc(-c2ccccc2)c1C(=O)N[C@@H]1C(=O)N2[C@@H]1SC(C)(C)[C@@H]2C(=O)O [OXACILLIN] | > 128 µg/mL | < 1 µg/mL | – | – |
| CN[C@H](CC(C)C)C(=O)N[C@H]1C(=O)N[C@@H](CC(N)=O)C(=O)N[C@H]2C(=O)N[C@H]3C(=O)N[C@H](C(=O)N[C@H](C(=O)O)c4cc(O)cc(O)c4-c4cc3ccc4O)[C@H](O)c3ccc(c(Cl)c3)Oc3cc2cc(c3O[C@@H]2O[C@H](CO)[C@@H](O)[C@H](O)[C@H]2O[C@H]2C[C@](C)(N)[C@H](O)[C@H](C)O2)Oc2ccc(cc2Cl)[C@H]1O [VANCOMYCIN] | – | < 1 µg/mL | – | – |
